Laboratory results as given in US9932314B2, “Pyrazole compounds and their use as T-type calcium channel blockers” (IDORSIA PHARMACEUTICALS LTD, priority 2015, dated 2018).

Biological target: T1, voltage-dependent T-type calcium channel subunit alpha-1G (Cav3.2) (Homo sapiens, UniProt O95180)
T1 construct: expressed in transfected cells; host or cells: HEK293
Experiment: FLIPR calcium flux assay, HEK293 cells recombinantly expressing Cav3.2
Type: cell-based
Details: Cav3.2-channel, Fluo-4-AM, 3 min incubation, stimulation with 10 mM CaCl2
Outline: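 HEK293 cells stably expressing human Cav3.2 were loaded with Fluo-4-AM. Compounds diluted in TEAC buffer (pH 7.2) were preincubated for 3 min, then Ca2+ entry was triggered by 10 mM final CaCl2. Inhibition curves were fitted sigmoidally to the area under the fluorescence trace.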

T1 sequence (O95180 whole entry): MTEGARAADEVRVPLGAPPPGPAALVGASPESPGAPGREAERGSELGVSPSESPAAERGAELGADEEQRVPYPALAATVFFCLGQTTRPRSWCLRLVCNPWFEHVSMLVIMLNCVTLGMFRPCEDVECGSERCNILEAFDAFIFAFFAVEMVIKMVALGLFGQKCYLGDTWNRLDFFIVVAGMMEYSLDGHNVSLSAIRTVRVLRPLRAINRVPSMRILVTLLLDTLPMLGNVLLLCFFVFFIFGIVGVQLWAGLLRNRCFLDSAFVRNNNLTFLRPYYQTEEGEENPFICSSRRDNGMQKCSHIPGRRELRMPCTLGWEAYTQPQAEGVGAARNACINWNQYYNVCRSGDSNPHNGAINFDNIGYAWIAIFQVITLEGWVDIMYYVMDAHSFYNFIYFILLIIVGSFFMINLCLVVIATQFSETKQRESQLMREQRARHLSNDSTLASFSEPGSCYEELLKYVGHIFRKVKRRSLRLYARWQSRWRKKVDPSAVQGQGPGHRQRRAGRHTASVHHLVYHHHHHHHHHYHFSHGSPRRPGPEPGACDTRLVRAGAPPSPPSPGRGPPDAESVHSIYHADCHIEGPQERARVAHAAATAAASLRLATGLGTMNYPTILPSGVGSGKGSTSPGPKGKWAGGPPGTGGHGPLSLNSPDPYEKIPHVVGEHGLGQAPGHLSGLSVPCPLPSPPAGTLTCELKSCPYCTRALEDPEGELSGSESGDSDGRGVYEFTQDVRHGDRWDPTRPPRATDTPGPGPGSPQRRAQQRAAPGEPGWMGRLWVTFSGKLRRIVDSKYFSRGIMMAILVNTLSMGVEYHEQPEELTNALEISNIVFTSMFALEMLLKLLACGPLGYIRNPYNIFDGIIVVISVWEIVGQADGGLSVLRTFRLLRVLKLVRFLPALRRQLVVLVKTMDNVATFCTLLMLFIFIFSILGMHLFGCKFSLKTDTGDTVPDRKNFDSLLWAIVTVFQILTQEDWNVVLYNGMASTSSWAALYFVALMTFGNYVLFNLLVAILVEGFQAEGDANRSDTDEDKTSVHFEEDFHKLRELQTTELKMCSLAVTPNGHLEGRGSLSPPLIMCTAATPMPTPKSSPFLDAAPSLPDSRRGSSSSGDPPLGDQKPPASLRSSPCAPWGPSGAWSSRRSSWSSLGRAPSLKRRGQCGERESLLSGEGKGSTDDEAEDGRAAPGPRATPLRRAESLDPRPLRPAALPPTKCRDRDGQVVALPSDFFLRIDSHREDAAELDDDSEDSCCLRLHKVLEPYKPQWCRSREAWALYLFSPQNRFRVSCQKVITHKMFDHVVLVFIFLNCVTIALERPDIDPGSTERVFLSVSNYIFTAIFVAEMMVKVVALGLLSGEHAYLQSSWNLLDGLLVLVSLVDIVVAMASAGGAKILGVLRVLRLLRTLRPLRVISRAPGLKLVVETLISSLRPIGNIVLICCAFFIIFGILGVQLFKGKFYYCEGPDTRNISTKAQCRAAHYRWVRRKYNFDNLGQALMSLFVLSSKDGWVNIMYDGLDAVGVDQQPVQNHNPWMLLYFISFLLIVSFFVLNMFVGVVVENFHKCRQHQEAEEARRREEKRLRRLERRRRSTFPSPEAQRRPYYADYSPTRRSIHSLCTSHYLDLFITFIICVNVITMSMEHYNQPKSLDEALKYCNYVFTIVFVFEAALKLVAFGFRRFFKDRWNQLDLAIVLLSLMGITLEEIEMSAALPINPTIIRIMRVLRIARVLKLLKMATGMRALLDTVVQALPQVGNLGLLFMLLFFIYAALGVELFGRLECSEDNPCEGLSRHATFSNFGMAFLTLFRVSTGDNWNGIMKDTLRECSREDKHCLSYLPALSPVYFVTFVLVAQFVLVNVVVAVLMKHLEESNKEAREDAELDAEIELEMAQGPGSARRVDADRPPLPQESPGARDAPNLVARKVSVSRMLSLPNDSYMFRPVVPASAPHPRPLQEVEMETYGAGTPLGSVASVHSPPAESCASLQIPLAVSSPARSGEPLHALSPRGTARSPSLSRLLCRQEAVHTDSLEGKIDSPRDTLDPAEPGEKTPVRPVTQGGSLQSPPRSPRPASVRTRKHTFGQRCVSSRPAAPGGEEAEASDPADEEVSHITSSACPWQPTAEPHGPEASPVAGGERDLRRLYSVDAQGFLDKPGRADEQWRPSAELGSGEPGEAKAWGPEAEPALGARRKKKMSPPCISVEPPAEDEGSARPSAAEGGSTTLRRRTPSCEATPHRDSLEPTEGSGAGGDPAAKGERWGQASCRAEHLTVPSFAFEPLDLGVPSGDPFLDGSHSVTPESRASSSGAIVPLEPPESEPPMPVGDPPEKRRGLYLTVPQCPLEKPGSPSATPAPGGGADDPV

Compound | IC50 [nM]
N#Cc1c(F)cc(Cn2ccc(NC(=O)Cc3ccc(N4CCC(F)(F)C4)nc3)n2)cc1F [Example 349, N-[1-(4-Cyano-3,5-difluoro-benzyl)-1H-pyrazol-3-yl]-2-[6-(3,3-difluoro-pyrrolidin-1-yl)-pyridin-3-yl]-acetamide] | 23
Cn1cc(C#N)c2cc(CC(=O)Nc3ccn(Cc4ccc(F)c(C#N)c4)n3)ccc21 [Example 329, N-[1-(3-Cyano-4-fluoro-benzyl)-1H-pyrazol-3-yl]-2-(3-cyano-1-methyl-1H-indol-5-yl)-acetamide] | 80
N#Cc1ccc(Cn2ccc(NC(=O)Cc3ccc(C4CC(F)(F)C4)cc3)n2)cc1F [Example 288, N-[1-(4-Cyano-3-fluoro-benzyl)-1H-pyrazol-3-yl]-2-[4-(3,3-difluoro-cyclobutyl)-phenyl]-acetamide] | 4.7
O=C(Cc1ccc(N2CC[C@H](F)C2)cc1)Nc1ccn(Cc2ccc(F)cc2)n1 [Example 75, N-[1-(4-Fluoro-benzyl)-1H-pyrazol-3-yl]-2-[4-((S)-3-fluoro-pyrrolidin-1-yl)-phenyl]-acetamide] | 5.2
Cn1ncc2ccc(CC(=O)Nc3ccn(Cc4ccc(C#N)cc4)n3)cc21 [Example 295, N-[1-(4-Cyano-benzyl)-1H-pyrazol-3-yl]-2-(1-methyl-1H-indazol-6-yl)-acetamide] | 308
CC(C)c1ccc(CC(=O)Nc2ccn(Cc3ccc(C#N)c(C4CC4)n3)n2)cc1 [Example 133, N-[1-(5-Cyano-6-cyclopropyl-pyridin-2-ylmethyl)-1H-pyrazol-3-yl]-2-(4-isopropyl-phenyl)-acetamide] | 191
Cn1cc(C2CCC2)c2cc(CC(=O)Nc3ccn(Cc4ccc(F)c(C#N)c4)n3)ccc21 [Example 327, N-[1-(3-Cyano-4-fluoro-benzyl)-1H-pyrazol-3-yl]-2-(3-cyclobutyl-1-methyl-1H-indol-5-yl)-acetamide] | 37
O=C(Cc1ccc(C2(F)COC2)nc1)Nc1ccn(Cc2ccc(F)c(F)c2)n1 [Example 315, N-[1-(3,4-Difluoro-benzyl)-1H-pyrazol-3-yl]-2-[6-(3-fluoro-oxetan-3-yl)-pyridin-3-yl]-acetamide] | 240
Cc1ccc(Cn2ccc(NC(=O)Cc3ccc(C4(C)CC4)cc3)n2)nc1C#N [Example 377, N-[1-(6-Cyano-5-methyl-pyridin-2-ylmethyl)-1H-pyrazol-3-yl]-2-[4-(1-methyl-cyclopropyl)-phenyl]-acetamide] | 25
N#Cc1ccc(Cn2ccc(NC(=O)Cc3ccc(N4CCC(F)(F)C4)cc3)n2)nc1 [Example 91, N-[1-(5-Cyano-pyridin-2-ylmethyl)-1H-pyrazol-3-yl]-2-[4-(3,3-difluoro-pyrrolidin-1-yl)-phenyl]-acetamide] | 23
O=C(Cc1ccc(-c2cncnc2)cc1)Nc1ccn(Cc2ccc(F)cc2)n1 [Example 86, N-[1-(4-Fluoro-benzyl)-1H-pyrazol-3-yl]-2-(4-pyrimidin-5-yl-phenyl)-acetamide] | 140
N#Cc1ccc(Cn2ccc(NC(=O)Cc3ccc(N4CC[C@H](F)C4)nc3)n2)nc1 [Example 152, N-[1-(5-Cyano-pyridin-2-ylmethyl)-1H-pyrazol-3-yl]-2-[6-((S)-3-fluoro-pyrrolidin-1-yl)-pyridin-3-yl]-acetamide] | 1160
N#Cc1ccc(Cn2ccc(NC(=O)Cc3ccc(C4CC(F)(F)C4)cc3)n2)nc1 [Example 305, N-[1-(5-Cyano-pyridin-2-ylmethyl)-1H-pyrazol-3-yl]-2-[4-(3,3-difluoro-cyclobutyl)-phenyl]-acetamide] | 29
CN(C)c1ccc(CC(=O)Nc2ccn(Cc3ccc(Cl)c(F)c3)n2)cc1 [Example 26, N-[1-(4-Chloro-3-fluoro-benzyl)-1H-pyrazol-3-yl]-2-(4-dimethylamino-phenyl)-acetamide] | 5.4
N#Cc1cc(Cn2ccc(NC(=O)Cc3ccc(C4(C#N)CC4)cc3)n2)ccc1F [Example 355, 2-[4-(1-Cyano-cyclopropyl)-phenyl]-N-[1-(3-cyano-4-fluoro-benzyl)-1H-pyrazol-3-yl]-acetamide] | 26
CC1(COc2ccc(CC(=O)Nc3ccn(Cc4ccc(C#N)cn4)n3)cc2)COC1 [Example 284, N-[1-(5-Cyano-pyridin-2-ylmethyl)-1H-pyrazol-3-yl]-2-[4-(3-methyl-oxetan-3-ylmethoxy)-phenyl]-acetamide] | 3070
N#Cc1cc(Cn2ccc(NC(=O)Cc3ccc(C4(F)COC4)cc3)n2)ccc1F [Example 270, N-[1-(3-Cyano-4-fluoro-benzyl)-1H-pyrazol-3-yl]-2-[4-(3-fluoro-oxetan-3-yl)-phenyl]-acetamide] | 51
O=C(Cc1ccc(N2CCC2)nc1)Nc1ccn(Cc2ccc(F)cc2)n1 [Example 103, 2-(6-Azetidin-1-yl-pyridin-3-yl)-N-[1-(4-fluoro-benzyl)-1H-pyrazol-3-yl]-acetamide] | 145
CCN(C)c1ccc(CC(=O)Nc2ccn(Cc3ccc(C#N)cn3)n2)cn1 [Example 171, N-[1-(5-Cyano-pyridin-2-ylmethyl)-1H-pyrazol-3-yl]-2-[6-(ethyl-methyl-amino)-pyridin-3-yl]-acetamide] | 980
N#Cc1ccc(Cn2ccc(NC(=O)Cc3ccc(OCC4COC4)cc3)n2)nc1 [Example 287, N-[1-(5-Cyano-pyridin-2-ylmethyl)-1H-pyrazol-3-yl]-2-[4-(oxetan-3-ylmethoxy)-phenyl]-acetamide] | 9480
CN(C)c1ccc(CC(=O)Nc2ccn(Cc3ccc(Cl)c(OC(F)(F)F)c3)n2)cc1 [Example 34, N-[1-(4-Chloro-3-trifluoromethoxy-benzyl)-1H-pyrazol-3-yl]-2-(4-dimethylamino-phenyl)-acetamide] | 91
CCc1ccc(Cn2ccc(NC(=O)Cc3ccc(N(C)C)cc3)n2)cc1 [Example 16, 2-(4-Dimethylamino-phenyl)-N-[1-(4-ethyl-benzyl)-1H-pyrazol-3-yl]-acetamide] | 10
CN(C)c1ccc(CC(=O)Nc2ccn(Cc3ccc(Cl)c(C(F)(F)F)c3)n2)cc1 [Example 27, N-[1-(4-Chloro-3-trifluoromethyl-benzyl)-1H-pyrazol-3-yl]-2-(4-dimethylamino-phenyl)-acetamide] | 61
Cn1ncc2cc(CC(=O)Nc3ccn(Cc4cc(F)c(C#N)c(F)c4)n3)ccc21 [Example 344, N-[1-(4-Cyano-3,5-difluoro-benzyl)-1H-pyrazol-3-yl]-2-(1-methyl-1H-indazol-5-yl)-acetamide] | 52
